Patent US6133275A, “3-phenylpyrrolidine alpha-1 adrenergic compounds” (Abbott Laboratories, priority 1998, dated 2000)
Structures can show the parent of a compound that is named as a salt.

Key:
BPH patients = settings: cited from earlier work; for improvements in urinary flow rates and subjective symptom scores: longer term studies; for Clinical efficacy in BPH: BPH patients
α1a (Rat) = biological target: T1, α1a (Rat) (Rattus norvegicus, UniProt P43140); assay: Radioligand binding, displacement of [3H]-prazosin from cloned α1a (rat) expressed in LTK cells; settings: [3H]-prazosin 0.2 nM; cloned rat α1a in LTK cell membranes; 25° C., 50 minutes
T1 sequence (P43140 1-466): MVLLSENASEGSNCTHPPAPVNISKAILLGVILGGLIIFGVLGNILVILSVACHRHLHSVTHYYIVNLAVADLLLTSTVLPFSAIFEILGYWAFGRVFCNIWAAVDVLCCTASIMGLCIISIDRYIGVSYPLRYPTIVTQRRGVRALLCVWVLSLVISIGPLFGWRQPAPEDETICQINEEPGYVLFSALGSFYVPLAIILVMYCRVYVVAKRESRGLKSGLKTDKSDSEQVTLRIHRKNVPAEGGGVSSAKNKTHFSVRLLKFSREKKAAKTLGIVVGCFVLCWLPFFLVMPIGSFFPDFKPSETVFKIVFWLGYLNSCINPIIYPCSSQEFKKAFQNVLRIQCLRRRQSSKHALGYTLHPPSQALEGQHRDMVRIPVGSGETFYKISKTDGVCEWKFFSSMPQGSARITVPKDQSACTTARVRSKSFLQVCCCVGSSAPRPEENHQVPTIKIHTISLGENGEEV

α1a (Bovine) = biological target: T2, α1a (Bovine) (Bos taurus, UniProt P18130); assay: Radioligand binding, displacement of [3H]-prazosin from cloned α1a (bovine) expressed in LTK cells; settings: [3H]-prazosin 0.2 nM; cloned bovine α1a in LTK cell membranes; 25° C., 50 minutes
T2 sequence (P18130 1-466): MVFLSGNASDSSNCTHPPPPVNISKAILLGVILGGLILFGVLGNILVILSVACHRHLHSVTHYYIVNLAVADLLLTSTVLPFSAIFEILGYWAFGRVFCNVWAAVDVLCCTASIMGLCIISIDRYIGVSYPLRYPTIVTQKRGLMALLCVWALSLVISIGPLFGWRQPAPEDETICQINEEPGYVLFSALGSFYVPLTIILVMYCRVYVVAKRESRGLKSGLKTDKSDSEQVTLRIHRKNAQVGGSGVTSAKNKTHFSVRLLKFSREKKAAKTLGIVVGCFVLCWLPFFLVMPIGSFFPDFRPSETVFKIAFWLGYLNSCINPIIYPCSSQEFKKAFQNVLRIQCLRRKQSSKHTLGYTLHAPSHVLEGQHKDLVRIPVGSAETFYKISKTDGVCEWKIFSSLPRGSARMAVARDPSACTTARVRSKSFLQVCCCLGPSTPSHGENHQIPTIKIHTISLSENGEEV

α1b (Hamster) = biological target: T3, α1b (Hamster) (Mesocricetus auratus, UniProt P18841); assay: Radioligand binding, displacement of [3H]-prazosin from cloned α1b (hamster) expressed in LTK cells; settings: [3H]-prazosin 0.2 nM; cloned hamster α1b in LTK cell membranes; 25° C., 50 minutes
T3 sequence (P18841 1-515): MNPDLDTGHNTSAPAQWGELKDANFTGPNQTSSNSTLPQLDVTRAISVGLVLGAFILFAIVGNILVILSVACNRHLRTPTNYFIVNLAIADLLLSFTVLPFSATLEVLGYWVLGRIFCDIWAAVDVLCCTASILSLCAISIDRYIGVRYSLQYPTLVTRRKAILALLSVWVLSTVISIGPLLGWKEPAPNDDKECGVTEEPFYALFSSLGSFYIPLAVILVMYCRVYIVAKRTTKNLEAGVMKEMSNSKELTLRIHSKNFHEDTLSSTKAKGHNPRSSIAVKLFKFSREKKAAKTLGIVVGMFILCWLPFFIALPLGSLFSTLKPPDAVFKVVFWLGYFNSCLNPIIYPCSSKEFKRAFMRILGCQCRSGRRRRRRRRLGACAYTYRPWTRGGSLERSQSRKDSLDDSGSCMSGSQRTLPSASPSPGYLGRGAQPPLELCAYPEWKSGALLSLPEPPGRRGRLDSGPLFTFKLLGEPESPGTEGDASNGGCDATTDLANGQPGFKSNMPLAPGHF

α1d (rat) = biological target: T4, α1d (rat) (Rattus norvegicus, UniProt P23944); assay: Radioligand binding, displacement of [3H]-prazosin from cloned α1d (rat) expressed in LTK cells; settings: [3H]-prazosin 0.2 nM; cloned rat α1d in LTK cell membranes; 25° C., 50 minutes
T4 sequence (P23944 1-561): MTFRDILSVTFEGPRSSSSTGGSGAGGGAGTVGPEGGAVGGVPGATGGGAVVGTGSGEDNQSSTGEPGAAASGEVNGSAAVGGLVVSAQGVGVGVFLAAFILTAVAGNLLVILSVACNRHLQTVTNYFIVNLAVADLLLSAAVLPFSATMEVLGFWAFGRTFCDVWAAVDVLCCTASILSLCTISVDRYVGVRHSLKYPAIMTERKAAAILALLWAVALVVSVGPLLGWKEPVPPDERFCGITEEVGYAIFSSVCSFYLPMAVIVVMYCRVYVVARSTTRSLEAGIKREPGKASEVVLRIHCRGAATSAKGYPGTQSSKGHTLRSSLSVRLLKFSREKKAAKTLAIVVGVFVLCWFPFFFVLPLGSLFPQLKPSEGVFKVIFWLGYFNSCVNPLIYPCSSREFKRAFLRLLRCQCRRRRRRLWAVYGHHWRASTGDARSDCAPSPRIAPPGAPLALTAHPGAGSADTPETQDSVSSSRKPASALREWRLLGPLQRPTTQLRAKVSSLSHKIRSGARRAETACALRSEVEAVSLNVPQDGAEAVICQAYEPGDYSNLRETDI

Structure (SMILES) | improvements in urinary flow rates and subjective symptom scores (BPH patients) | Clinical efficacy in BPH (BPH patients) | Ki (α1a (Rat)) | Ki (α1a (Bovine)) | Ki (α1b (Hamster)) | Ki (α1d (rat))
O=C(NC1CCN(CCc2c[nH]c3ccccc23)CC1)c1ccccc1 [indoramin] | significant improvements in urinary flow rates and subjective symptom scores | – | – | – | – | –
COc1cc2nc(N3CCN(C(=O)C4COc5ccccc5O4)CC3)nc(N)c2cc1OC (centres unmarked) [doxazosin] | significant improvements in urinary flow rates and subjective symptom scores | Clinical efficacy of α1 antagonists in BPH has been demonstrated | – | – | – | –
COc1cc2nc(N3CCN(C(=O)C4CCCO4)CC3)nc(N)c2cc1OC (centres unmarked) [terazosin] | significant improvements in urinary flow rates and subjective symptom scores | Clinical efficacy of α1 antagonists in BPH has been demonstrated | – | – | – | –
COc1cc2nc(N3CCN(C(=O)c4ccco4)CC3)nc(N)c2cc1OC [prazosin] | significant improvements in urinary flow rates and subjective symptom scores | – | – | – | – | –
COc1ccccc1[C@@H]1CCN(CCn2c(=O)[nH]c3c(sc4ccccc43)c2=O)C1 [Example 25, (S)-3-[2-[3-(2-methoxyphenyl)-1-pyrrolidinyl]ethyl]-[1]benzothieno[3,2-d]pyrimidine-2,4(1H,3H)-dione Monohydrochloride] | – | – | 9.33 nM | 1.67 nM | 5.61 nM | 3.86 nM
COc1ccccc1[C@H]1CCN(CCCCN2C(=O)COc3ccccc32)C1 [Example 18, (R)-4-[4-[3-(2-methoxyphenyl)-1-pyrrolidinyl]butyl]-2H-1,4-benzoxazin-3(4H)-one, Monohydrochloride] | – | – | 0.46 nM | 0.21 nM | 1.02 nM | 0.66 nM
